≈ marks a conversion by molar mass, not a printed value.
What was measured:
Pseudomonas aeruginosa [1] = experiment: Antibacterial activity against PiuA/PirA receptor-deficient Pseudomonas aeruginosa PAO1 in Muller-Hinton broth medium by broth microdilution method; format: functional
Pseudomonas aeruginosa [2] = experiment: Antibacterial activity against PirA receptor-deficient Pseudomonas aeruginosa PAO1 in Muller-Hinton broth medium by broth microdilution method; format: functional
Pseudomonas aeruginosa [3] = experiment: Antibacterial activity against Pseudomonas aeruginosa 1042-06 by broth microdilution method; format: functional
Pseudomonas aeruginosa [4] = experiment: Antibacterial activity against FptA receptor-deficient Pseudomonas aeruginosa PAO1 in Muller-Hinton broth medium by broth microdilution method; format: functional
Klebsiella pneumoniae [5] = experiment: Antibacterial activity against Klebsiella pneumoniae 1487-07 by broth microdilution method; format: functional
Klebsiella pneumoniae [6] = experiment: Antibacterial activity against Klebsiella pneumoniae expressing ESBL by broth microdilution method; format: functional
Rattus norvegicus = experiment: Intrinsic clearance in Wistar Han rat at 1 mg/kg, iv by LC/MS/MS analysis; format: ADME, organism-based; parameters: dose 1 mg/kg, route intravenous; settings: in vivo
[7] = Inhibition of PBP1a in Pseudomonas aeruginosa ATCC 27853 after 20 mins by fluorescence assay
[8] = Fraction unbound in rat plasma; format: ADME, cell-free
Acinetobacter sp. = experiment: Antibacterial activity against Acinetobacter spp. by broth microdilution method; format: functional
[9] = Inhibition of PBP3 in Pseudomonas aeruginosa ATCC 27853 after 20 mins by fluorescence assay
Pseudomonas aeruginosa [10] = experiment: Antibacterial activity against PiuA/FptA receptor-deficient Pseudomonas aeruginosa PAO1 in iron-chelated Muller-Hinton broth medium by broth microdilution method; format: functional
Pseudomonas aeruginosa [11] = experiment: Antibacterial activity against PiuA/FpvA receptor-deficient Pseudomonas aeruginosa PAO1 in Muller-Hinton broth medium by broth microdilution method; format: functional
Pseudomonas aeruginosa [12] = experiment: Ratio of MIC for PiuA/PirA receptor-deficient Pseudomonas aeruginosa PAO1 to MIC for Pseudomonas aeruginosa PAO1 in iron-chelated Muller-Hinton broth medium by broth microdilution method; format: functional
Pseudomonas aeruginosa [13] = experiment: Antibacterial activity against FpvA receptor-deficient Pseudomonas aeruginosa PAO1 in Muller-Hinton broth medium by broth microdilution method; format: functional
[14] = Fraction unbound in mouse plasma; format: ADME, cell-free
Pseudomonas aeruginosa [15] = experiment: Antibacterial activity against PiuA receptor-deficient Pseudomonas aeruginosa PAO1 in iron-chelated Muller-Hinton broth medium by broth microdilution method; format: functional
Pseudomonas aeruginosa [16] = experiment: Antibacterial activity against Pseudomonas aeruginosa expressing metallo-beta-lactamase by broth microdilution method; format: functional
Pseudomonas aeruginosa [17] = experiment: Ratio of MIC for PiuA/PirA receptor-deficient Pseudomonas aeruginosa PAO1 to MIC for Pseudomonas aeruginosa PAO1 in Muller-Hinton broth medium by broth microdilution method; format: functional
Acinetobacter baumannii = experiment: Antibacterial activity against Acinetobacter baumannii AB-3167 by broth microdilution method; format: functional
[18] = Plasma clearance in Wistar Han rat at 1 mg/kg, iv by LC/MS/MS analysis; format: ADME, organism-based; parameters: dose 1 mg/kg, route intravenous
Pseudomonas aeruginosa [19] = experiment: Antibacterial activity against Pseudomonas aeruginosa PAO1 in Muller-Hinton broth medium by broth microdilution method; format: functional
Klebsiella pneumoniae [20] = experiment: Antibacterial activity against Klebsiella pneumoniae 1000-02 by broth microdilution method; format: functional
Pseudomonas aeruginosa [21] = experiment: Antibacterial activity against Pseudomonas aeruginosa from cystic fibrosis patients by broth microdilution method; format: functional
Pseudomonas aeruginosa [22] = experiment: Antibacterial activity against PiuA/PirA receptor-deficient Pseudomonas aeruginosa PAO1 in iron-chelated Muller-Hinton broth medium by broth microdilution method; format: functional
Escherichia coli [23] = experiment: Antibacterial activity against Escherichia coli expressing defined beta-lactamase by broth microdilution method; format: functional
Pseudomonas aeruginosa [24] = experiment: Antibacterial activity against FpvA receptor-deficient Pseudomonas aeruginosa PAO1 in iron-chelated Muller-Hinton broth medium by broth microdilution method; format: functional
Pseudomonas aeruginosa [25] = experiment: Antibacterial activity against FptA receptor-deficient Pseudomonas aeruginosa PAO1 in iron-chelated Muller-Hinton broth medium by broth microdilution method; format: functional
[26] = Inhibition of PBP2 in Pseudomonas aeruginosa ATCC 27853 after 20 mins by fluorescence assay
Escherichia coli [27] = experiment: Antibacterial activity against Escherichia coli expressing CTX-M by broth microdilution method; format: functional
Pseudomonas aeruginosa [28] = experiment: Antibacterial activity against PiuA/FptA receptor-deficient Pseudomonas aeruginosa PAO1 in Muller-Hinton broth medium by broth microdilution method; format: functional
Pseudomonas aeruginosa [29] = experiment: Antibacterial activity against PiuA/FpvA receptor-deficient Pseudomonas aeruginosa PAO1 in iron-chelated Muller-Hinton broth medium by broth microdilution method; format: functional
Pseudomonas aeruginosa [30] = experiment: microbe, parasite or virus in culture; settings: 1091-05
Description: Antibacterial activity against Pseudomonas aeruginosa 1091-05 by broth microdilution method

[31] = Inhibition of PBP1b in Pseudomonas aeruginosa ATCC 27853 after 20 mins by fluorescence assay
Klebsiella pneumoniae [32] = experiment: Antibacterial activity against Klebsiella pneumoniae expressing KPC by broth microdilution method; format: functional
Pseudomonas aeruginosa [33] = experiment: Ratio of MIC for PiuA receptor-deficient Pseudomonas aeruginosa PAO1 to MIC for Pseudomonas aeruginosa PAO1 in Muller-Hinton broth medium by broth microdilution method; format: functional
Pseudomonas aeruginosa [34] = experiment: Antibacterial activity against PiuA receptor-deficient Pseudomonas aeruginosa PAO1 in Muller-Hinton broth medium by broth microdilution method; format: functional
[35] = Fraction unbound in human plasma; format: ADME, cell-free
Klebsiella pneumoniae [36] = experiment: Antibacterial activity against Klebsiella pneumoniae expressing defined beta-lactamase by broth microdilution method; format: functional
Pseudomonas aeruginosa [37] = experiment: Antibacterial activity against PirA receptor-deficient Pseudomonas aeruginosa PAO1 in iron-chelated Muller-Hinton broth medium by broth microdilution method; format: functional
Escherichia coli [38] = experiment: Antibacterial activity against Escherichia coli expressing ESBL by broth microdilution method; format: functional

Compound: CC(C)(O/N=C(\C(=O)N[C@@H]1C(=O)N(S(=O)(=O)O)[C@@H]1CNC(=O)NCc1cc(=O)c(O)cn1O)c1csc(N)n1)C(=O)O
- MIC (Pseudomonas aeruginosa [1]): 32 µg/mL (≈ 50.6 µM)
- MIC (Pseudomonas aeruginosa [2]): 0.25 µg/mL (≈ 0.395 µM)
- MIC (Pseudomonas aeruginosa [3]): 2 µg/mL (≈ 3.16 µM)
- MIC (Pseudomonas aeruginosa [4]): 0.25 µg/mL (≈ 0.395 µM)
- MIC (Klebsiella pneumoniae [5]): 2 µg/mL (≈ 3.16 µM)
- MIC90 (Klebsiella pneumoniae [6]): 1 µg/mL (≈ 1.58 µM)
- CL (Rattus norvegicus): 10 mL/min/kg
- IC50 [7]: 620 nM
- fraction unbound [8]: 0.91
- MIC50 (Acinetobacter sp.): 8 µg/mL (≈ 12.6 µM)
- MIC90 (Acinetobacter sp.): > 64 µg/mL
- IC50 [9]: 54 nM
- MIC (Pseudomonas aeruginosa [10]): 0.5 µg/mL (≈ 0.79 µM)
- MIC (Pseudomonas aeruginosa [11]): 8 µg/mL (≈ 12.6 µM)
- Ratio (Pseudomonas aeruginosa [12]): >=64
- MIC (Pseudomonas aeruginosa [13]): 0.25 µg/mL (≈ 0.395 µM)
- fraction unbound [14]: 0.91
- MIC (Pseudomonas aeruginosa [15]): 0.5 µg/mL (≈ 0.79 µM)
- MIC50 (Pseudomonas aeruginosa [16]): 0.25 µg/mL (≈ 0.395 µM)
- MIC90 (Pseudomonas aeruginosa [16]): 1 µg/mL (≈ 1.58 µM)
- Ratio (Pseudomonas aeruginosa [17]): >=64
- MIC (Acinetobacter baumannii): 0.25 µg/mL (≈ 0.395 µM)
- clearance [18]: 8.4 mL/min/kg
- MIC (Pseudomonas aeruginosa [19]): 0.25 µg/mL (≈ 0.395 µM)
- MIC (Klebsiella pneumoniae [20]): 0.25 µg/mL (≈ 0.395 µM)
- MIC50 (Pseudomonas aeruginosa [21]): 0.25 µg/mL (≈ 0.395 µM)
- MIC90 (Pseudomonas aeruginosa [21]): 4 µg/mL (≈ 6.32 µM)
- MIC (Pseudomonas aeruginosa [22]): 32 µg/mL (≈ 50.6 µM)
- MIC50 (Escherichia coli [23]): 0.125 µg/mL (≈ 0.198 µM)
- MIC90 (Escherichia coli [23]): 1 µg/mL (≈ 1.58 µM)
- MIC (Pseudomonas aeruginosa [24]): 0.06 µg/mL (≈ 0.0948 µM)
- MIC (Pseudomonas aeruginosa [25]): 0.25 µg/mL (≈ 0.395 µM)
- IC50 [26]: > 300000 nM
- MIC50 (Escherichia coli [27]): 0.5 µg/mL (≈ 0.79 µM)
- MIC90 (Escherichia coli [27]): 1 µg/mL (≈ 1.58 µM)
- MIC (Pseudomonas aeruginosa [28]): 8 µg/mL (≈ 12.6 µM)
- MIC (Pseudomonas aeruginosa [29]): 0.25 µg/mL (≈ 0.395 µM)
- MIC (Pseudomonas aeruginosa [30]): 0.25 µg/mL (≈ 0.395 µM)
- IC50 [31]: 1670 nM
- MIC50 (Klebsiella pneumoniae [32]): 4 µg/mL (≈ 6.32 µM)
- MIC90 (Klebsiella pneumoniae [32]): 16 µg/mL (≈ 25.3 µM)
- Ratio (Pseudomonas aeruginosa [33]): 32
- MIC (Pseudomonas aeruginosa [34]): 8 µg/mL (≈ 12.6 µM)
- fraction unbound [35]: 1
- MIC50 (Klebsiella pneumoniae [36]): 0.5 µg/mL (≈ 0.79 µM)
- MIC90 (Klebsiella pneumoniae [36]): 16 µg/mL (≈ 25.3 µM)
- MIC (Pseudomonas aeruginosa [37]): 0.25 µg/mL (≈ 0.395 µM)
- MIC50 (Escherichia coli [38]): 0.25 µg/mL (≈ 0.395 µM)
- MIC90 (Escherichia coli [38]): 2 µg/mL (≈ 3.16 µM)

Compound: CC(C)(O/N=C(\C(=O)N[C@@H]1C(=O)N(S(=O)(=O)[O-])[C@@H]1CNC(=O)OCc1cc(=O)c(O)cn1O)c1csc(N)n1)C(=O)[O-].[Na+].[Na+]
- MIC (Pseudomonas aeruginosa [3]): 2 µg/mL
- CL (Rattus norvegicus): 29 mL/min/kg
- fraction unbound [8]: 0.61
- fraction unbound [14]: 0.72
- MIC (Acinetobacter baumannii): 0.125 µg/mL
- clearance [18]: 14.2 mL/min/kg
- MIC (Klebsiella pneumoniae [20]): 4 µg/mL
- MIC (Pseudomonas aeruginosa [30]): 0.25 µg/mL
- fraction unbound [35]: 0.51

Compound: NCC[C@H](O)C(=O)N[C@@H]1C[C@H](N)[C@@H](O[C@H]2O[C@H](CN)[C@@H](O)[C@H](O)[C@H]2O)[C@H](O)[C@H]1O[C@H]1O[C@H](CO)[C@@H](O)[C@H](N)[C@H]1O [AMIKACIN]
- MIC (Pseudomonas aeruginosa [3]): 8 µg/mL (≈ 13.7 µM)
- MIC (Klebsiella pneumoniae [5]): 64 µg/mL (≈ 109 µM)
- MIC50 (Klebsiella pneumoniae [6]): 4 µg/mL (≈ 6.83 µM)
- MIC90 (Klebsiella pneumoniae [6]): 64 µg/mL (≈ 109 µM)
- MIC50 (Acinetobacter sp.): 4 µg/mL (≈ 6.83 µM)
- MIC90 (Acinetobacter sp.): > 64 µg/mL
- MIC50 (Pseudomonas aeruginosa [16]): > 64 µg/mL
- MIC90 (Pseudomonas aeruginosa [16]): > 64 µg/mL
- MIC (Acinetobacter baumannii): 1 µg/mL (≈ 1.71 µM)
- MIC50 (Pseudomonas aeruginosa [21]): 8 µg/mL (≈ 13.7 µM)
- MIC90 (Pseudomonas aeruginosa [21]): > 64 µg/mL
- MIC50 (Escherichia coli [23]): 1 µg/mL (≈ 1.71 µM)
- MIC90 (Escherichia coli [23]): 16 µg/mL (≈ 27.3 µM)
- MIC50 (Escherichia coli [27]): 8 µg/mL (≈ 13.7 µM)
- MIC90 (Escherichia coli [27]): 32 µg/mL (≈ 54.6 µM)
- MIC (Pseudomonas aeruginosa [30]): 2 µg/mL (≈ 3.42 µM)
- MIC50 (Klebsiella pneumoniae [32]): 32 µg/mL (≈ 54.6 µM)
- MIC90 (Klebsiella pneumoniae [32]): > 64 µg/mL
- MIC50 (Klebsiella pneumoniae [36]): 4 µg/mL (≈ 6.83 µM)
- MIC90 (Klebsiella pneumoniae [36]): > 64 µg/mL
- MIC50 (Escherichia coli [38]): 8 µg/mL (≈ 13.7 µM)
- MIC90 (Escherichia coli [38]): 64 µg/mL (≈ 109 µM)

Compound: CC(C)(O/N=C(\C(=O)N[C@@H]1C(=O)N(S(=O)(=O)O)[C@@H]1CNC(=O)NCc1cc(=O)c(O)cn1O)c1csc(N)n1)C(=O)NO
- MIC (Pseudomonas aeruginosa [3]): > 64 µg/mL
- MIC (Klebsiella pneumoniae [5]): 16 µg/mL (≈ 24.7 µM)
- IC50 [7]: 3020 nM
- IC50 [9]: 270 nM
- MIC (Acinetobacter baumannii): 1 µg/mL (≈ 1.54 µM)
- MIC (Klebsiella pneumoniae [20]): 8 µg/mL (≈ 12.4 µM)
- IC50 [26]: > 300000 nM
- MIC (Pseudomonas aeruginosa [30]): 1 µg/mL (≈ 1.54 µM)
- IC50 [31]: 11100 nM

Source: ChEMBL document CHEMBL2407067, “Pyridone-conjugated monobactam antibiotics with gram-negative activity” (J Med Chem, 2013)
